# Test results reported in ChEMBL document CHEMBL1201862, “PubChem BioAssay data set” (2004).
#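 Method: 48-hour compound exposure of cells in 96-well plates, five concentrations, linear interpolation of endpoints. GI50 is the concentration that inhibits growth by half.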 Activity calls are given as the source filed them. Cut-off read from the data, not from the text of the source: active = GI50 up to about 1.1 µM and inactive = higher.
# How the values were obtained:
# Assay in all cases: NCI anticancer screen, dose series, 48 h
# [1] = tested on: 786-0
# [2] = tested on: A498
# [3] = tested on: A549
# [4] = tested on: ACHN
# [5] = tested on: BT-549
# [6] = tested on: CAKI-1
# [7] = tested on: CCRF-CEM
# [8] = tested on: COLO 205
# [9] = tested on: DU-145
# [10] = tested on: EKVX
# [11] = tested on: HCC 2998
# [12] = tested on: HCT-116
# [13] = tested on: HL-60
# [14] = tested on: HOP-62
# [15] = tested on: HOP-92
# [16] = tested on: HT-29
# [17] = tested on: Hs-578T
# [18] = tested on: IGROV-1
# [19] = tested on: K562
# [20] = tested on: KM12
# [21] = tested on: LOX IMVI
# [22] = tested on: M14
# [23] = tested on: MCF7
# [24] = tested on: MDA-MB-231
# [25] = tested on: MDA-MB-435
# [26] = tested on: MDA-N
# [27] = tested on: MOLT-4
# [28] = tested on: Malme-3M
# [29] = tested on: NCI-H226
# [30] = tested on: NCI-H23
# [31] = tested on: NCI-H460
# [32] = tested on: NCI-H522
# [33] = tested on: NCI/ADR-RES
# [34] = tested on: OVCAR-3
# [35] = tested on: OVCAR-4
# [36] = tested on: OVCAR-5
# [37] = tested on: OVCAR-8
# [38] = tested on: PC-3
# [39] = tested on: RPMI-8226
# [40] = tested on: RXF 393
# [41] = tested on: SF-268
# [42] = tested on: SF-295
# [43] = tested on: SF-539
# [44] = tested on: SK-MEL-28
# [45] = tested on: SK-MEL-2
# [46] = tested on: SK-MEL-5
# [47] = tested on: SK-OV-3
# [48] = tested on: SN12C
# [49] = tested on: SNB-19
# [50] = tested on: SNB-75
# [51] = tested on: SR
# [52] = tested on: SW-620
# [53] = tested on: U-251
# [54] = tested on: UACC-257
# [55] = tested on: UACC-62
# [56] = tested on: UO-31
# [57] = tested on: HCT-15
# [58] = tested on: TK-10
smiles,measurement,setting,value
CCOC(=O)/C(C#N)=C/c1ccc(SCc2ccco2)c([N+](=O)[O-])c1,GI50,[1],> 100 µM (inactive)
same,GI50,[2],> 100 µM (inactive)
same,GI50,[3],> 100 µM (inactive)
same,GI50,[4],> 100 µM (inactive)
same,GI50,[5],> 100 µM (inactive)
same,GI50,[6],> 100 µM (inactive)
same,GI50,[7],> 100 µM (inactive)
same,GI50,[8],> 100 µM (inactive)
same,GI50,[9],> 100 µM (inactive)
same,GI50,[10],> 100 µM (inactive)
same,GI50,[11],> 100 µM (inactive)
same,GI50,[12],> 100 µM (inactive)
same,GI50,[13],> 100 µM (inactive)
same,GI50,[14],> 100 µM (inactive)
same,GI50,[15],> 100 µM (inactive)
same,GI50,[16],> 100 µM (inactive)
same,GI50,[17],> 100 µM (inactive)
same,GI50,[18],> 100 µM (inactive)
same,GI50,[19],> 100 µM (inactive)
same,GI50,[20],> 100 µM (inactive)
same,GI50,[21],> 100 µM (inactive)
same,GI50,[22],> 100 µM (inactive)
same,GI50,[23],> 100 µM (inactive)
same,GI50,[24],> 100 µM (inactive)
same,GI50,[25],> 100 µM (inactive)
same,GI50,[26],> 100 µM (inactive)
same,GI50,[27],> 100 µM (inactive)
same,GI50,[28],> 100 µM (inactive)
same,GI50,[29],> 100 µM (inactive)
same,GI50,[30],> 100 µM (inactive)
same,GI50,[31],> 100 µM (inactive)
same,GI50,[32],> 100 µM (inactive)
same,GI50,[33],> 100 µM (inactive)
same,GI50,[34],> 100 µM (inactive)
same,GI50,[35],> 100 µM (inactive)
same,GI50,[36],> 100 µM (inactive)
same,GI50,[37],> 100 µM (inactive)
same,GI50,[38],> 100 µM (inactive)
same,GI50,[39],> 100 µM (inactive)
same,GI50,[40],> 100 µM (inactive)
same,GI50,[41],> 100 µM (inactive)
same,GI50,[42],> 100 µM (inactive)
same,GI50,[43],56.8 µM (inactive)
same,GI50,[44],> 100 µM (inactive)
same,GI50,[45],> 100 µM (inactive)
same,GI50,[46],> 100 µM (inactive)
same,GI50,[47],> 100 µM (inactive)
same,GI50,[48],> 100 µM (inactive)
same,GI50,[49],> 100 µM (inactive)
same,GI50,[50],> 100 µM (inactive)
same,GI50,[51],> 100 µM (inactive)
same,GI50,[52],> 100 µM (inactive)
same,GI50,[53],> 100 µM (inactive)
same,GI50,[54],> 100 µM (inactive)
same,GI50,[55],57 µM (inactive)
same,GI50,[56],> 100 µM (inactive)
CCOc1ccc2nc(NC(=O)C(=O)C3C(=O)C(CC4C(=O)c5ccccc5C4=O)C(=O)CC3(C)C)sc2c1 (centres undefined),GI50,[1],> 100 µM (inactive)
same,GI50,[3],87.5 µM (inactive)
same,GI50,[4],> 100 µM (inactive)
same,GI50,[5],> 100 µM (inactive)
same,GI50,[6],80 µM (inactive)
same,GI50,[7],30.8 µM (inactive)
same,GI50,[8],> 100 µM (inactive)
same,GI50,[9],> 100 µM (inactive)
same,GI50,[10],32.9 µM (inactive)
same,GI50,[11],> 100 µM (inactive)
same,GI50,[12],86.7 µM (inactive)
same,GI50,[57],> 100 µM
same,GI50,[13],20.3 µM (inactive)
same,GI50,[14],> 100 µM (inactive)
same,GI50,[15],34.6 µM (inactive)
same,GI50,[16],> 100 µM (inactive)
same,GI50,[17],> 100 µM (inactive)
same,GI50,[18],44 µM (inactive)
same,GI50,[20],> 100 µM (inactive)
same,GI50,[21],> 100 µM (inactive)
same,GI50,[22],> 100 µM (inactive)
same,GI50,[23],> 100 µM (inactive)
same,GI50,[24],24 µM (inactive)
same,GI50,[25],> 100 µM (inactive)
same,GI50,[26],> 100 µM (inactive)
same,GI50,[27],13.5 µM (inactive)
same,GI50,[29],> 100 µM (inactive)
same,GI50,[30],95.1 µM (inactive)
same,GI50,[31],> 100 µM (inactive)
same,GI50,[32],> 100 µM (inactive)
same,GI50,[33],> 100 µM (inactive)
same,GI50,[34],66.7 µM (inactive)
same,GI50,[35],56.1 µM (inactive)
same,GI50,[36],> 100 µM (inactive)
same,GI50,[37],> 100 µM (inactive)
same,GI50,[38],65.8 µM (inactive)
same,GI50,[40],> 100 µM (inactive)
same,GI50,[41],> 100 µM (inactive)
same,GI50,[42],> 100 µM (inactive)
same,GI50,[43],> 100 µM (inactive)
same,GI50,[44],> 100 µM (inactive)
same,GI50,[45],> 100 µM (inactive)
same,GI50,[46],96.4 µM (inactive)
same,GI50,[47],> 100 µM (inactive)
same,GI50,[48],> 100 µM (inactive)
same,GI50,[49],> 100 µM (inactive)
same,GI50,[50],> 100 µM (inactive)
same,GI50,[52],> 100 µM (inactive)
same,GI50,[58],> 100 µM (inactive)
same,GI50,[53],> 100 µM (inactive)
same,GI50,[54],> 100 µM (inactive)
same,GI50,[55],90.4 µM (inactive)
same,GI50,[56],18.9 µM (inactive)
